# Experimental data taken from US20230049952A1, “METHODS AND COMPOUNDS FOR RESTORING MUTANT P53 FUNCTION” (PMV Pharmaceuticals, Inc., priority 2020, published 2023).
# System: p53 signaling pathway in MT373 tumors
# Assay: MT373 syngeneic sarcoma model: mouse p53 signaling pathway profiling panel
# Assay type: in vivo
# Conditions: MT373 tumors
compound,measurement,setting,value
"CCn1c(C#CCNc2ccccc2)cc2cc(CNC3CCN(C)CC3)ccc21 [Compound 1, 1-Anilino-3-{1-ethyl-5-[(1-methyl-4-piperidylamino)methyl]-1H-indol-2-yl}-2-propyne]","Wt1 mRNA, Fold Increase Over Vehicle Control or Percent Reduction Compared to Vehicle Control (%)","75 mg/kg BIDx1, 72 h",23.33 fold or %
same,"Zmat3 mRNA, Fold Increase Over Vehicle Control or Percent Reduction Compared to Vehicle Control (%)","75 mg/kg BIDx1, 72 h",1.10 fold or %
same,"Actb* mRNA (housekeeping or reference gene), Fold Increase Over Vehicle Control or Percent Reduction Compared to Vehicle Control (%)","150 mg/kg BIDx1, 8 h",1.00 fold or %
same,"B2m* mRNA (housekeeping or reference gene), Fold Increase Over Vehicle Control or Percent Reduction Compared to Vehicle Control (%)","150 mg/kg BIDx1, 8 h",1.05 fold or %
same,"Gapdh* mRNA (housekeeping or reference gene), Fold Increase Over Vehicle Control or Percent Reduction Compared to Vehicle Control (%)","150 mg/kg BIDx1, 8 h",1.02 fold or %
same,"Gusb* mRNA (housekeeping or reference gene), Fold Increase Over Vehicle Control or Percent Reduction Compared to Vehicle Control (%)","150 mg/kg BIDx1, 8 h",1.02 fold or %
same,"Hsp90ab1* mRNA (housekeeping or reference gene), Fold Increase Over Vehicle Control or Percent Reduction Compared to Vehicle Control (%)","150 mg/kg BIDx1, 8 h",9.13 fold or %
same,"MGDC* (housekeeping or reference gene), Fold Increase Over Vehicle Control or Percent Reduction Compared to Vehicle Control (%)","150 mg/kg BIDx1, 8 h",1.00 fold or %
same,"Trp63 mRNA, Fold Increase Over Vehicle Control or Percent Reduction Compared to Vehicle Control (%)","150 mg/kg BIDx1, 8 h",1.02 fold or %
same,"Trp73 mRNA, Fold Increase Over Vehicle Control or Percent Reduction Compared to Vehicle Control (%)","150 mg/kg BIDx1, 8 h",1.00 fold or %
same,"Wt1 mRNA, Fold Increase Over Vehicle Control or Percent Reduction Compared to Vehicle Control (%)","150 mg/kg BIDx1, 8 h",30.29 fold or %
same,"Zmat3 mRNA, Fold Increase Over Vehicle Control or Percent Reduction Compared to Vehicle Control (%)","150 mg/kg BIDx1, 8 h",6.69 fold or %
same,"Actb* mRNA (housekeeping or reference gene), Fold Increase Over Vehicle Control or Percent Reduction Compared to Vehicle Control (%)","150 mg/kg BIDx1, 24 h",1.11 fold or %
same,"B2m* mRNA (housekeeping or reference gene), Fold Increase Over Vehicle Control or Percent Reduction Compared to Vehicle Control (%)","150 mg/kg BIDx1, 24 h",1.11 fold or %
same,"Gapdh* mRNA (housekeeping or reference gene), Fold Increase Over Vehicle Control or Percent Reduction Compared to Vehicle Control (%)","150 mg/kg BIDx1, 24 h",14.16 fold or %
same,"Gusb* mRNA (housekeeping or reference gene), Fold Increase Over Vehicle Control or Percent Reduction Compared to Vehicle Control (%)","150 mg/kg BIDx1, 24 h",1.25 fold or %
same,"Hsp90ab1* mRNA (housekeeping or reference gene), Fold Increase Over Vehicle Control or Percent Reduction Compared to Vehicle Control (%)","150 mg/kg BIDx1, 24 h",24.42 fold or %
same,"MGDC* (housekeeping or reference gene), Fold Increase Over Vehicle Control or Percent Reduction Compared to Vehicle Control (%)","150 mg/kg BIDx1, 24 h",1.00 fold or %
same,"Trp63 mRNA, Fold Increase Over Vehicle Control or Percent Reduction Compared to Vehicle Control (%)","150 mg/kg BIDx1, 24 h",1.00 fold or %
same,"Trp73 mRNA, Fold Increase Over Vehicle Control or Percent Reduction Compared to Vehicle Control (%)","150 mg/kg BIDx1, 24 h",1.00 fold or %
same,"Wt1 mRNA, Fold Increase Over Vehicle Control or Percent Reduction Compared to Vehicle Control (%)","150 mg/kg BIDx1, 24 h",21.51 fold or %
same,"Zmat3 mRNA, Fold Increase Over Vehicle Control or Percent Reduction Compared to Vehicle Control (%)","150 mg/kg BIDx1, 24 h",6.17 fold
same,"Actb* mRNA (housekeeping or reference gene), Fold Increase Over Vehicle Control or Percent Reduction Compared to Vehicle Control (%)","150 mg/kg BIDx1, 48 h",1.04 fold or %
same,"B2m* mRNA (housekeeping or reference gene), Fold Increase Over Vehicle Control or Percent Reduction Compared to Vehicle Control (%)","150 mg/kg BIDx1, 48 h",1.20 fold or %
same,"Gapdh* mRNA (housekeeping or reference gene), Fold Increase Over Vehicle Control or Percent Reduction Compared to Vehicle Control (%)","150 mg/kg BIDx1, 48 h",27.30 fold or %
same,"Gusb* mRNA (housekeeping or reference gene), Fold Increase Over Vehicle Control or Percent Reduction Compared to Vehicle Control (%)","150 mg/kg BIDx1, 48 h",1.39 fold or %
same,"Hsp90ab1* mRNA (housekeeping or reference gene), Fold Increase Over Vehicle Control or Percent Reduction Compared to Vehicle Control (%)","150 mg/kg BIDx1, 48 h",19.96 fold or %
same,"MGDC* (housekeeping or reference gene), Fold Increase Over Vehicle Control or Percent Reduction Compared to Vehicle Control (%)","150 mg/kg BIDx1, 48 h",1.00 fold or %
same,"Trp63 mRNA, Fold Increase Over Vehicle Control or Percent Reduction Compared to Vehicle Control (%)","150 mg/kg BIDx1, 48 h",1.00 fold or %
same,"Trp73 mRNA, Fold Increase Over Vehicle Control or Percent Reduction Compared to Vehicle Control (%)","150 mg/kg BIDx1, 48 h",1.00 fold or %
same,"Wt1 mRNA, Fold Increase Over Vehicle Control or Percent Reduction Compared to Vehicle Control (%)","150 mg/kg BIDx1, 48 h",21.51 fold or %
same,"Zmat3 mRNA, Fold Increase Over Vehicle Control or Percent Reduction Compared to Vehicle Control (%)","150 mg/kg BIDx1, 48 h",1.36 fold or %
same,"Actb* mRNA (housekeeping or reference gene), Fold Increase Over Vehicle Control or Percent Reduction Compared to Vehicle Control (%)","150 mg/kg BIDx1, 72 h",1.04 fold or %
same,"B2m* mRNA (housekeeping or reference gene), Fold Increase Over Vehicle Control or Percent Reduction Compared to Vehicle Control (%)","150 mg/kg BIDx1, 72 h",1.18 fold or %
same,"Gapdh* mRNA (housekeeping or reference gene), Fold Increase Over Vehicle Control or Percent Reduction Compared to Vehicle Control (%)","150 mg/kg BIDx1, 72 h",19.69 fold or %
same,"Gusb* mRNA (housekeeping or reference gene), Fold Increase Over Vehicle Control or Percent Reduction Compared to Vehicle Control (%)","150 mg/kg BIDx1, 72 h",1.27 fold or %
same,"Hsp90ab1* mRNA (housekeeping or reference gene), Fold Increase Over Vehicle Control or Percent Reduction Compared to Vehicle Control (%)","150 mg/kg BIDx1, 72 h",1.00 fold or %
same,"MGDC* (housekeeping or reference gene), Fold Increase Over Vehicle Control or Percent Reduction Compared to Vehicle Control (%)","150 mg/kg BIDx1, 72 h",1.53 fold or %
same,"Trp63 mRNA, Fold Increase Over Vehicle Control or Percent Reduction Compared to Vehicle Control (%)","150 mg/kg BIDx1, 72 h",1.67 fold or %
same,"Trp73 mRNA, Fold Increase Over Vehicle Control or Percent Reduction Compared to Vehicle Control (%)","150 mg/kg BIDx1, 72 h",1.00 fold or %
same,"Wt1 mRNA, Fold Increase Over Vehicle Control or Percent Reduction Compared to Vehicle Control (%)","150 mg/kg BIDx1, 72 h",21.51 fold or %
same,"Zmat3 mRNA, Fold Increase Over Vehicle Control or Percent Reduction Compared to Vehicle Control (%)","150 mg/kg BIDx1, 72 h",1.21 fold or %
